Structures are written as SMILES.

The compound `CCCCC(CC)Cn1c2cc(Br)ccc2c2ccc(Br)cc21` (stereo not given) had a melting point of 95 to 97 °C.

`CCCCCCCCc1cc2c(s1)NC(=O)CN=C2c1ccccc1OC` yielded a melting point of 128 to 130 °C.

With `O=C(Nc1cc(F)c(-c2ccncc2)c(F)c1)OCc1ccccc1`, the melting point lay within 185 to 186 °C.

In the case of `Nc1cc(-n2cc(C(=O)O)c(=O)c3cc(F)c(Cl)nc32)ccc1F`, the melting point is above 270 °C.

Compound `CCCCCCCNC(=O)Nc1c(C(=O)NC2CCN(C(c3ccccc3)c3ccccc3)CC2)cccc1N(C)C` registered a melting point of 203 °C.

The compound `c1ccc(-c2cc(NC3=NCCN3)n(-c3ccccc3)n2)cc1` came in with a melting point of 228 to 230 °C.

`COc1ccc(C2=C(c3ccccc3)CCCc3cc(OCc4ccccc4)ccc32)cc1` came in with a melting point of 163 to 164 °C.

In turn, `CCCc1nn(C)c2c(=O)[nH]c(Cc3ccc(S(=O)(=O)N[C@@H](CO)C(N)=O)cc3)nc12` registered a melting point of 226 to 229 °C.

For `CN1C2CCC1CC(NC(=O)c1cccc3nc(-c4ccccc4)oc13)C2` (stereo not given), the melting point lay within 164 to 166 °C.

In the case of `O=[N+]([O-])c1ccc2c(c1)C(c1ccccc1F)=NCc1nc(CO)cn1-2`, the melting point fell in the range of 230 to 231 °C.

Regarding `O=c1ccn(-c2ccc(F)cc2)nc1-c1ccnn1-c1ccccc1`, the melting point lay within 252 to 253 °C.

On to `CN(C)CCNC(=O)c1ccc(OCc2ccc(-c3ccccc3)cc2)nc1`, for which the melting point was 151 to 154 °C.

As for `O=C1NCCN1C(=O)N1CCOCC1`, the melting point was determined as 158 °C.

Compound `CC(=O)c1nnn(C[C@@H]2C[C@@H](S)CN2S(=O)(=O)c2ccc3ccccc3c2)c1C` returned a melting point of 145 °C.

For the compound `O=c1cc(-c2ccccc2)oc2cc(OCC(O)CNCCCCc3cccnc3)ccc12` (stereo not given), the melting point lay in the range of 116 to 119 °C.

In turn, `Cn1ncc(C(=O)N2CCC2)c1C(=O)Nc1ccn2nc(-c3ccccc3)nc2c1` yielded a melting point of 243 to 245 °C.

Compound `OCc1nn(-c2ccccc2Cl)cc1-c1ccccc1` had a melting point of 132 °C.

On to `CC(C)CC(=O)Nc1cccc(-c2ccnc3c(-c4ccc5[nH]ccc5c4)cnn23)c1`, for which the melting point lay within 167 to 169 °C.

Compound `NC(=NO)c1ccncc1` registered a melting point of 203 to 205 °C.

Consider `COc1ccc(CCCn2ccnc2S)cc1`, for which the melting point lay within 108 to 109 °C.

In turn, `COc1ccc(CCNC(=O)C(=O)NCc2ccncc2)cc1OC1CCCC1` had a melting point of 129 to 131 °C.

`CCCCCCc1cc(-c2ccccc2)c(OCC(=O)OC)c(-c2ccccc2)c1` gave a melting point of 87 to 89 °C.

Turning to `CCCCCCc1nnc2n1-c1ccc(Cl)cc1C(c1ccccc1)=NC2`, the melting point lay in the range of 75 to 78 °C.

For the compound `COC=C(C(=O)OC)C1=C(C=Cc2ccccc2)CCC1`, the melting point is 107 °C.

Compound `NCCNc1nc2ccccc2n(-c2ccc(Cl)cc2)c1=O` yielded a melting point of 173 to 174 °C.

In turn, `CCOC(=O)c1cnn(-c2ccc(CBr)cc2)n1` yielded a melting point of 148 to 149 °C.

For the compound `CCCCCn1ncc2c(N)c3c(nc21)CN(Cc1cccc(C(F)(F)F)c1)C3=O`, the melting point lay within 146 to 148 °C.

Turning to `COc1ccc(NC(=O)c2ccc(OC)c3oc4ccc(NC(C)=O)cc4c23)cc1`, the melting point came out at 285 °C.

With `Cn1nnnc1-c1cnc2ccccc2c1O`, the melting point was in the range of 318 to 320 °C.

In turn, `Cc1ccc(C(=C(C=CC=O)c2nnnn2C)c2ccc(C)cc2F)c(F)c1` gave a melting point of 88 to 108 °C.

Regarding `Cn1ncc(/C=C/C(=O)O)c1-c1ccoc1`, the melting point is 218 to 219 °C.

`CCCCC(CC(=O)Nc1cc(C(N)=O)ccc1C(C)(C)C)c1ccc(OC)cc1OC` (stereo not given) gave a melting point of 186 to 188 °C.

The compound `CC(C)N1CC[C@@H](Oc2ccc(-n3ccc(OCc4ccc(Cl)cn4)cc3=O)cc2)C1` had a melting point of 154 to 155 °C.

As to `O=C(c1ccc(Cl)c([N+](=O)[O-])c1)c1nccs1`, the melting point is 118 to 119 °C.

In turn, `O=C1CCC(N2C(=O)c3cccc(OCc4ccc(CN5CCN(S(=O)(=O)C(F)(F)F)CC5)cc4)c3C2=O)C(=O)N1` (stereo not given) gave a melting point of 229 to 231 °C.

The values are drawn from a melting point compilation (Tetko et al.; mined from patent text by program, amines drawn as free bases though some values may be those of a salt).
